Measurements published in patent US20230129258A1, “HETEROTANDEM BICYCLIC PEPTIDE COMPLEXES” (BicycleTx Limited, priority 2019, published 2023).
Starred links: 1 amine or outer side, 2 acyl side, 3 side chain; linkers in the order of their positions; H or OH if unused. Positions of bridges follow the written chain, without caps; N, C: chain ends. Non-standard residues stand in square brackets, D forms with d. Primed or numbered codes have the meaning given here. Chains are numbered I, II in the order given. No end group written: not given here. *: point of attachment. X4 = O=C(CCOCCOCCOCCOCCOCCn1cc(CCC(=O)[*:2])nn1)NCCCN(CCCNC(=O)CCOCCOCCOCCOCCOCCn1cc(CCC(=O)[*:3])nn1)CC(=O)[*:1]; X1 = O=C(CCOCCOCCOCCN(CCOCCOCCOCCn1cc(CCC(=O)[*:2])nn1)CCOCCOCCOCCn1cc(CCC(=O)[*:3])nn1)[*:1]; PYA″ = 4-pentynoic acid, acylating the D-Lys side chain, alkyne clicked to the linker azide; X2 = O=C(CCSCCC(=O)[*:1])N1CN(C(=O)CC[*:2])CN(C(=O)CC[*:3])C1; TATA = O=C(CC[*:1])N1CN(C(=O)CC[*:2])CN(C(=O)CC[*:3])C1; Ala(4-thiazolyl) = N[C@@H](Cc1cscn1)C(=O)O; His(τ-Me) = Cn1cnc(C[C@H](N)C(=O)O)c1; d1Nal = N[C@H](Cc1cccc2ccccc12)C(=O)O; Hyp = O=C(O)[C@@H]1C[C@@H](O)CN1; hArg = N=C(N)NCCCC[C@H](N)C(=O)O; tBuAla = CC(C)(C)C[C@H](N)C(=O)O; Nle = CCCC[C@H](N)C(=O)O; Pent4ynoyl = C#CCCC(=O)*; Mpa = O=C(O)CCS

Biological target: CD137 (Homo sapiens, UniProt Q07011)
Sequence (Q07011 24-255): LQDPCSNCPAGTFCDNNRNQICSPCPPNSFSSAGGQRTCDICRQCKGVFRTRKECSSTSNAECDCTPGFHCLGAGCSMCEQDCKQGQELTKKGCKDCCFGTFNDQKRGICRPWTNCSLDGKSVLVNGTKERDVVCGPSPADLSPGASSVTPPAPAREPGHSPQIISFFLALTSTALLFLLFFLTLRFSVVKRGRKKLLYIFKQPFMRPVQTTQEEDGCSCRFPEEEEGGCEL
Experiment: CD137 reporter assay (Promega, Jurkat cells) in co-culture with EphA2-expressing tumor cells (A549, PC3, HT29)
Format: cell-based
Set-up: host or cells: Jurkat reporter cells
Conditions: for Fold Improvement over BCY9173, EC50 (nM) / Fold Improvement over Emax: co-culture with PC3; for Fold Improvement over Emax: versus BCY9173; for fold induction / Emax (fold induction over background): CD137 reporter coculture assay with PC3 tumor cells; for fold induction: read-out: Emax (fold induction over background); for EC50: EC50, CD137 reporter coculture assay with PC3 tumor cells
Description: Culture medium, referred to as R1 media, is prepared by adding 1% FBS to RPMI-1640 (component of Promega kit CS196005). Serial dilutions of test articles in R1 are prepared in a sterile 96 well-plate. Add 25 μL per well of test articles or R1 (as a background control) to designated wells in a white cell culture plate. Tumor cells* are harvested and resuspended at a concentration of 400,000 cells/mL in R1 media. Twenty five (25) μL/well of tumor cells are added to the white cell culture plate. Jurkat cells (Promega kit CS196005, 0.5 mL) are thawed in the water bath and then added to 5 ml pre-warmed R1 media. Twenty five (25) μL/well of Jurkat cells are then added to the white cell culture plate. Incubate the cells and test articles for 6 h at 37° C., 5% CO2. At the end of 6 h, add 75 μL/well Bio-Glo™ reagent (Promega) and incubate for 10 min before reading luminescence in a plate reader (Clariostar, BMG). The fold change relative to cells alone (Jurkat cells+Cell line used in co-culture) is calculated and plotted in GraphPad Prism as log(agonist) vs response to determine EC50 (nM) and Fold Induction over background (Max).
The tumor cell types used in co-culture for EphA2 are A549, PC3 and HT29. The tumor cell type used in co-culture for PD-L1 is RKO.

Question: With “BCY13279: EphA2:CD137 1:2; BCY13125 (C-term dLys) + 2x BCY8928; linker N-(acid-PEG3)-N-bis(PEG3-azide) (peptide 1 Ac-C[Hyp]LVNPLCLHP[dD]W[hArg]CL[dH]G[dK]; peptide 2 Ac-C[tBuAla]PE[dK](Pent4ynoyl)PYCFADPY[Nle]CA; linker I:1-I:8-I:15 via TATA; linker II:1-II:8-II:15 via TATA (inferred); not fully specified (bridges); also: linker N-(acid-PEG3)-N-bis(PEG3-azide) on C-terminal dK of chain 1, joins two chain 2 copies (2x BCY8928) via PYA triazoles)” as the substance, how does the “Fold Improvement over BCY9173, EC50 (nM)” value read?
Answer: 4.74 fold

Question: And the “Fold Improvement over Emax” value?
Answer: 2.08 fold

Question: For “BCY14050: EphA2:CD137 1:2; BCY13918 + 2x BCY8928; linker N-(acid-PEG3)-N-bis(PEG3-azide) (peptide 1 A[hArg]DC[Hyp]LVNPLCL[His(τ-Me)]P[dD]W[hArg]C; peptide 2 Ac-C[tBuAla]PE[dK](PYA″)PYCFADPY[Nle]CA; linker I:4-I:11-I:18, II:1-II:8-II:15 via TATA (inferred); not fully specified (N-terminus, bridges); also: 2x chain 2 (2x BCY8928) on linker)”, which “Fold Improvement over BCY9173, EC50 (nM)” value is on record?
Answer: 2.05 fold

Question: What about the “Fold Improvement over Emax” value of the same substance?
Answer: 1.91 fold

Question: With “BCY14051: EphA2:CD137 1:2; BCY13919 + 2x BCY8928; linker N-(acid-PEG3)-N-bis(PEG3-azide) (peptide 1 A[hArg]DC[Hyp]LVNPLCL[Ala(4-thiazolyl)]P[dD]W[hArg]C; peptide 2 Ac-C[tBuAla]PE[dK](PYA″)PYCFADPY[Nle]CA; linker I:4-I:11-I:18, II:1-II:8-II:15 via TATA (inferred); not fully specified (N-terminus, bridges); also: 2x chain 2 (2x BCY8928) on linker)” as the substance, how does the “Fold Improvement over BCY9173, EC50 (nM)” value read?
Answer: 3.15 fold

Question: What about the “Fold Improvement over Emax” value of the same substance?
Answer: 1.88 fold

Question: Which results are given for “BCY14052: EphA2:CD137 1:2; BCY13920 + 2x BCY8928; linker N-(acid-PEG3)-N-bis(PEG3-azide) (peptide 1 A[hArg]DC[Hyp]LVNPLCLFP[dD]W[hArg]C; peptide 2 Ac-C[tBuAla]PE[dK](PYA″)PYCFADPY[Nle]CA; linker I:4-I:11-I:18 via TATA; linker II:1-II:8-II:15 via TATA (inferred); not fully specified (N-terminus, bridges); also: 2x chain 2 (2x BCY8928) on linker)”?
Answer: Fold Improvement over BCY9173, EC50 (nM): 4.16 fold; Fold Improvement over Emax: 1.89 fold

Question: With “BCY14334: EphA2:CD137 1:2; BCY14313 + 2x BCY8928; linker N-(acid-PEG3)-N-bis(PEG3-azide) (peptide 1 A[hArg]DC[Hyp]LVNPLCLKP[dD]W[hArg]C; peptide 2 Ac-C[tBuAla]PE[dK](Pent4ynoyl)PYCFADPY[Nle]CA; linker I:4-I:11-I:18, II:1-II:8-II:15 via TATA (inferred); not fully specified (some residues, N-terminus); also: 1:2 complex: chain 1 N-terminus joined to dLys(PYA)5 of two chain 2 copies via N-(acid-PEG3)-N-bis(PEG3-azide) linker)” as the substance, how does the “Fold Improvement over BCY9173, EC50 (nM)” value read?
Answer: 7.21 fold

Question: And the “Fold Improvement over Emax” value?
Answer: 1.62 fold

Question: With “BCY14335: EphA2:CD137 1:2; BCY14327 (Lys 8) + 2x BCY8928; linker N-(acid-PEG3)-N-bis(PEG3-azide) (peptide 1 {Palmitoyl‑Glu‑LysN3-Pent4ynoyl}-A[hArg]DC[Hyp]LVNPLCLKP[dD]W[hArg]C; peptide 2 Ac-C[tBuAla]PE[dK](Pent4ynoyl)PYCFADPY[Nle]CA; linker I:4-I:11-I:18, II:1-II:8-II:15 via TATA (inferred); not fully specified (some residues); also: 1:2 complex: linker bis(PEG3-azide) clicked to dLys(PYA)4 of two BCY8928 copies, one copy shown)” as the substance, how does the “Fold Improvement over BCY9173, EC50 (nM)” value read?
Answer: 7.14 fold

Question: What about the “Fold Improvement over Emax” value of the same substance?
Answer: 0.94 fold

Question: How did the fold induction turn out when “I: ADC[Hyp]LVNPLCLEP[dD]WTC-NH2 / II: Ac-C[tBuAla]PE[dK]PYCFADPY[Nle]CA-NH2 / III: Ac-C[tBuAla]PE[dK]PYCFADPY[Nle]CA-NH2 (linker I:3-I:10-I:17, II:1-II:8-II:15, III:1-III:8-III:15 via TATA; linker I:N-II:5-III:5 via X1) [BCY13282]” was run?
Answer: 40

Question: What does the source list for “I: A[hArg]DC[Hyp]LVNPLCLEP[dA]WTC-NH2 / II: Ac-C[tBuAla]PE[dK]PYCFADPY[Nle]CA-NH2 / III: Ac-C[tBuAla]PE[dK]PYCFADPY[Nle]CA-NH2 (linker I:4-I:11-I:18, II:1-II:8-II:15, III:1-III:8-III:15 via TATA; linker I:N-II:5-III:5 via X1) [BCY13046]”?
Answer: fold induction: 57.6; EC50: 0.17 nM

Question: “I: A[hArg]DC[Hyp]LVNPLCLEP[dD]WTC-NH2 / II: Ac-C[tBuAla]PE[dK]PYCFADPY[Nle]CA-NH2 / III: Ac-C[tBuAla]PE[dK]PYCFADPY[Nle]CA-NH2 (linker I:4-I:11-I:18, II:1-II:8-II:15, III:1-III:8-III:15 via TATA; linker I:N-II:5-III:5 via X1) [BCY13044]” was tested. Which fold induction did it give?
Answer: 49.5

Question: What about the EC50 of the same substance?
Answer: 0.21 nM

Question: What does the source list for “I: A[hArg]DC[Hyp]LVNPLCLEP[dD]WTC-NH2 / II: [Mpa][tBuAla]EE[dK]PYCFADPY[Nle]C-NH2 / III: [tBuAla]EE[dK]PYCFADPY[Nle]C-NH2 (linker I:4-I:11-I:18, II:1-II:8-II:15 via TATA; linker I:N-II:5-III:4 via X1; linker III:N-III:7-III:14 via X2) [BCY13140]”?
Answer: Emax (fold induction over background): 46.70; EC50: 0.12 nM

Question: Which results are given for “I: A[hArg]DC[Hyp]LVNPLCLEP[dD]WTC-NH2 / II: [Mpa][tBuAla]PE[dK]PYCFADPY[Nle]C-NH2 / III: [tBuAla]PE[dK]PYCFADPY[Nle]C-NH2 (linker I:4-I:11-I:18, II:1-II:8-II:15 via TATA; linker I:N-II:5-III:4 via X1; linker III:N-III:7-III:14 via X2) [BCY13138]”?
Answer: fold induction: 32.6; EC50: 0.17 nM

Question: How did the “Emax (fold induction over background)” value turn out when “I: A[hArg]DC[Hyp]LVNPLCLEP[dD]WTC[dA]-NH2 / II: Ac-C[tBuAla]PE[dK]PYCFADPY[Nle]CA-NH2 / III: Ac-C[tBuAla]PE[dK]PYCFADPY[Nle]CA-NH2 (linker I:4-I:11-I:18, II:1-II:8-II:15, III:1-III:8-III:15 via TATA; linker I:N-II:5-III:5 via X1) [BCY13045]” was run?
Answer: 49.87

Question: What about the EC50 of the same substance?
Answer: 0.23 nM

Question: What does the source list for “I: A[hArg]DC[Hyp]LVNPLCLEP[dD]W[hArg]C-NH2 / II: Ac-C[tBuAla]PE[dK]PYCFADPY[Nle]CA-NH2 / III: Ac-C[tBuAla]PE[dK]PYCFADPY[Nle]CA-NH2 (linker I:4-I:11-I:18, II:1-II:8-II:15, III:1-III:8-III:15 via TATA; linker I:N-II:5-III:5 via X1) [BCY13042]”?
Answer: fold induction: 58.3; EC50: 0.08 nM

Question: Which fold induction does the source give for “I: A[hArg]DC[Hyp]LVNPLCLHP[d1Nal]W[hArg]C-NH2 / II: Ac-C[tBuAla]PE[dK]PYCFADPY[Nle]CA-NH2 / III: Ac-C[tBuAla]PE[dK]PYCFADPY[Nle]CA-NH2 (linker I:4-I:11-I:18, II:1-II:8-II:15, III:1-III:8-III:15 via TATA; linker I:N-II:5-III:5 via X1) [BCY13270]” here?
Answer: 42.5

Question: What about the EC50 of the same substance?
Answer: 0.1 nM

Question: What does the source list for “I: A[hArg]DC[Hyp]LVNPLCLHP[dD]WTC-NH2 / II: Ac-C[tBuAla]PE[dK]PYCFADPY[Nle]CA-NH2 / III: Ac-C[tBuAla]PE[dK]PYCFADPY[Nle]CA-NH2 (linker I:4-I:11-I:18, II:1-II:8-II:15, III:1-III:8-III:15 via TATA; linker I:N-II:5-III:5 via X1) [BCY13043]”?
Answer: fold induction: 52.7; EC50: 0.11 nM

Question: “I: A[hArg]DC[Hyp]LVNPLCLHP[dD]W[hArg]C-NH2 / II: Ac-C[tBuAla]PE[dK]PYCFADPY[Nle]CA-NH2 / III: Ac-C[tBuAla]PE[dK]PYCFADPY[Nle]CA-NH2 (linker I:4-I:11-I:18, II:1-II:8-II:15, III:1-III:8-III:15 via TATA; linker I:N-II:5-III:5 via X4) [BCY12979]” was tested. Which “Emax (fold induction over background)” value did it give?
Answer: 71.60

Question: What about the EC50 of the same substance?
Answer: 0.08 nM

Question: “I: A[hArg]DC[Hyp]LVNPLCLHP[dD]W[hArg]C-NH2 / II: [Mpa][tBuAla]EE[dK]PYCFADPY[Nle]C-NH2 / III: [tBuAla]EE[dK]PYCFADPY[Nle]C-NH2 (linker I:4-I:11-I:18, II:1-II:8-II:15 via TATA; linker I:N-II:5-III:4 via X1; linker III:N-III:7-III:14 via X2) [BCY13139]” was tested. Which “Emax (fold induction over background)” value did it give?
Answer: 43.75

Question: And the EC50?
Answer: 0.16 nM

Question: For “I: A[hArg]DC[Hyp]LVNPLCLHP[dE]W[hArg]C-NH2 / II: Ac-C[tBuAla]PE[dK]PYCFADPY[Nle]CA-NH2 / III: Ac-C[tBuAla]PE[dK]PYCFADPY[Nle]CA-NH2 (linker I:4-I:11-I:18, II:1-II:8-II:15, III:1-III:8-III:15 via TATA; linker I:N-II:5-III:5 via X1) [BCY12977]”, which fold induction is on record?
Answer: 67.2

Question: What about the EC50 of the same substance?
Answer: 0.08 nM
